IC50 data for 34 molecules are collected here from patent US9969749B2, “Inhibitors of IRAK4 activity” (MERCK SHARP & DOHME CORP., priority 2014, dated 2018).

pIC50: −log10 of the molar value.

IRAK4, sequence (Q9NWZ3 whole entry): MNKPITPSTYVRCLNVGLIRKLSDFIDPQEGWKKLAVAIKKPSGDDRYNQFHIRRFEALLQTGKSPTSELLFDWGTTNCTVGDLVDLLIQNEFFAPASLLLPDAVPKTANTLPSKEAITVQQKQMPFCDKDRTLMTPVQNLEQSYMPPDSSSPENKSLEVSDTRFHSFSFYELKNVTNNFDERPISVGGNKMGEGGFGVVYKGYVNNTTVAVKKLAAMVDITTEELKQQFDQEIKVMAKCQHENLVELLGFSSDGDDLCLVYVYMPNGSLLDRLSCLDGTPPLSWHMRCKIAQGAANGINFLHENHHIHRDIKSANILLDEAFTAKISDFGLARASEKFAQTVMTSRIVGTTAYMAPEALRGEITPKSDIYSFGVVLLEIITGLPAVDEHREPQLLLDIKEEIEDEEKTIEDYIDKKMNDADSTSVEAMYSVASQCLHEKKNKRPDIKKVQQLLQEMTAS

This test has as its target IRAK4 (Homo sapiens (Human), UniProt Q9NWZ3). Nature of the test: IRAK4 Kinase Assay (IMAP fluorescence polarization). As to conditions: 0.5 nM GST tagged IRAK4, 100 μM ATP, 100 nM fluorescent peptide substrate RP7030, 30 minutes at 25° C. It counts as biochemical. As to the method: The kinase activity of IRAK4 is determined by its ability to catalyze the phosphorylation of a fluorescent polypeptide substrate. The extent of phosphorylation is measured using the IMAP technology (Molecular Devices) where the phosphorylated fluorescent substrate binds to the large M(III)-based nanoparticles which reduces the rotational speed of the substrate and thus increases its fluorescent polarization (FP).
20 μL reaction mixture contains 10 mM TriHCl, pH 7.2, 0.5 nM GST tagged IRAK4 (SignalChem), 100 nM fluorescent peptide substrate (RP7030, Molecular Devices), 100 μM ATP, 1 mM DDT, 1 mM MgCl2, and 0.01% Tween 20. The reaction is initiated by the addition of ATP. After incubation for 30 minutes at 25° C., 60 μL of Progressive IMAP Reagent (Molecular Devices) is added to stop the reaction. Change in RP7030's FP is determined by a FP reader (Analyst HT, LJL BioSystems).
Turning to `CN(C)[C@H]1CC[C@H](Nc2ncnc3ccc(-c4cnc(N)nc4)cc23)CC1` [Example 1-29, trans-N′-[6-(2-aminopyrimidin-5-yl)quinazolin-4-yl]-N,N-dimethylcyclohexane-1,4-diamine], the negative-log IC50 (pIC50) was 7.72. For `Cc1ccc(-c2ccc3ncnc(N[C@H]4CC[C@H](N(C)C)CC4)c3c2)cn1` [Example 1-30, trans-N,N-dimethyl-N′-[6-(6-methylpyridin-3-yl)quinazolin-4-yl]cyclohexane-1,4-diamine] the value was 7.38.

In turn, `COC(=O)c1cncc(-c2ccc3ncnc(N[C@H]4CC[C@H](N(C)C)CC4)c3c2)c1` [Example 1-31, methyl 5-(4-{[trans-4-(dimethylamino)cyclohexyl]amino}quinazolin-6-yl)pyridine-3-carboxylate] had a pIC50 of 7.35. The molecule `CN(C)[C@H]1CC[C@H](Nc2ncnc3ccc(-c4cnoc4)cc23)CC1` [Example 1-32, trans-N′-[6-(isoxazol-4-yl)quinazolin-4yl]-N,N-dimethylcyclohexane-1,4-diamine] gave a pIC50 of 8.05. As to `CN(C)[C@H]1CC[C@H](Nc2ncnc3ccc(-c4cnc(O)nc4)cc23)CC1` [Example 1-33, 5-(4-{[trans-4-(dimethylamino)cyclohexyl]amino}quinazolin-6-yl)pyrimidin-2-ol], the pIC50 was 8.05. For `CN(C)[C@H]1CC[C@H](Nc2ncnc3ccc(-c4ccncc4F)cc23)CC1` [Example 1-34, trans-N′-[6-(3-fluoropyridin-4-yl)quinazolin-4-yl]-N,N-dimethylcyclohexane-1,4-diamine] the value was 7.96; for `COc1ccncc1-c1ccc2ncnc(N[C@H]3CC[C@H](N(C)C)CC3)c2c1` [Example 1-35, trans-N′-[6-(4-methoxypyridin-3-yl)quinazolin-4-yl]-N,N-dimethylcyclohexane-1,4-diamine], 6.40; for `CN(C)[C@H]1CC[C@H](Nc2ncnc3ccc(-c4cnccc4C(F)(F)F)cc23)CC1` [Example 1-36, trans-N,N-dimethyl-N′-{6-[4-(trifluoromethyl)pyridin-3-yl]quinazolin-4-yl}cyclohexane-1,4-diamine], 7.72. The result for `CN(C)[C@H]1CC[C@H](Nc2ncnc3ccc(-c4cncc(C(=O)O)c4)cc23)CC1` [Example 1-37, 5-(4-{[trans-4-(dimethylamino)cyclohexyl]amino}quinazolin-6-yl)pyridine-3-carboxylic acid] reads 6.30. The result for `COc1cnccc1-c1ccc2ncnc(N[C@H]3CC[C@H](N(C)C)CC3)c2c1` [Example 1-38, trans-N′-[6-(3-methoxypyridin-4-yl)quinazolin-4-yl]-N,N-dimethylcyclohexane-1,4-diamine] reads 7.15. `CN(C)[C@H]1CC[C@H](Nc2ncnc3ccc(-c4cccnc4C#N)cc23)CC1` [Example 1-39, 3-(4-{[trans-4-(dimethylamino)cyclohexyl]amino}quinazolin-6-yl)pyridine-2-carbonitrile] had a pIC50 of 7.37. For `COCCOc1cncc(-c2ccc3ncnc(N[C@H]4CC[C@H](N(C)C)CC4)c3c2)c1` [Example 1-40, trans-N′-{6-[5-(2-methoxyethoxy)pyridin-3-yl]quinazolin-4-yl}-N,N-dimethylcyclohexane-1,4-diamine] the value was 7.08; for `CN(C)[C@H]1CC[C@H](Nc2ncnc3ccc(-c4cncc(S(C)(=O)=O)c4)cc23)CC1` [Example 1-41, trans-N,N-dimethyl-N′-{6-[5-(methylsulfonyl)pyridin-3-yl]quinazolin-4-yl}cyclohexane-1,4-diamine], 5.63; for `CN(C)[C@H]1CC[C@H](Nc2ncnc3ccc(-c4cnc(NC5CC5)nc4)cc23)CC1` [Example 1-42, trans-N′-{6-[2-(cyclopropylamino)pyrimidin-5-yl]quinazolin-4-yl}-N,N-dimethylcyclohexane-1,4-diamine], 7.96. In turn, `CN(C)[C@H]1CC[C@H](Nc2ncnc3ccc(-c4cnc(NCCO)nc4)cc23)CC1` [Example 1-43, 2-{[5-(4-{[trans-4-(dimethylamino)cyclohexyl]amino}quinazolin-6-yl)pyrimidin-2-yl]amino}ethanol] had a negative-log IC50 (pIC50) of 7.60. With `CN(C)[C@H]1CC[C@H](Nc2ncnc3ccc(-c4cccc(C#N)c4)cc23)CC1` [Example 1-44, 3-(4-{[trans-4-(dimethylamino)cyclohexyl]amino}quinazolin-6-yl)benzonitrile], the pIC50 was 7.49. For `CN(C)[C@H]1CC[C@H](Nc2ncnc3ccc(-c4ccc5[nH]ccc5c4)cc23)CC1` [Example 1-45, trans-N′-[6-(1H-indol-5-yl)quinazolin-4-yl]-N,N-dimethylcyclohexane-1,4-diamine] the value was 7.09; for `c1cncc(-c2ccc3ncnc(N[C@H]4CC[C@H](N5CCOCC5)CC4)c3c2)c1` [Example 1-46, N-[trans-4-(morpholin-4-yl)cyclohexyl]-6-(pyridin-3-yl)quinazolin-4-amine], 7.72.

The molecule `c1ncc(-c2ccc3ncnc(N[C@H]4CC[C@H](N5CCOCC5)CC4)c3c2)cn1` [Example 1-47, N-[trans-4-(morpholin-4-yl)cyclohexyl]-6-(pyrimidin-5-yl)quinazolin-4-amine] gave a pIC50 of 8.52. The result for `c1cc(-c2ccc3ncnc(N[C@H]4CC[C@H](N5CCOCC5)CC4)c3c2)ccn1` [Example 1-48, N-[trans-4-(morpholin-4-yl)cyclohexyl]-6-(pyridin-4-yl)quinazolin-4-amine] reads 8.05; that for `CN(C)[C@H]1CC[C@H](Nc2ncnc3ccc(-c4ccc5c(c4)OCCO5)cc23)CC1` [Example 1-49, trans-N′-[6-(2,3-dihydro-1,4-benzodioxin-6-yl)quinazolin-4-yl]-N,N-dimethylcyclohexane-1,4-diamine], 6.79.

With `CN(C)[C@H]1CC[C@H](Nc2ncnc3ccc(-c4ccnnc4)cc23)CC1` [Example 1-50, trans-N,N-dimethyl-N′-[6-(pyridazin-4-yl)quinazolin-4-yl]cyclohexane-1,4-diamine], the pIC50 was 7.96. The result for `COc1cncc(-c2ccc3ncnc(N[C@H]4CC[C@H](N(C)C)CC4)c3c2)c1` [Example 1-51, trans-N′-[6-(5-methoxypyridin-3-yl)quinazolin-4-yl]-N,N-dimethylcyclohexane-1,4-diamine] reads 7.60; that for `COc1ncc(-c2ccc3ncnc(N[C@H]4CC[C@H](N(C)C)CC4)c3c2)cc1F` [Example 1-52, trans-N′-[6-(5-fluoro-6-methoxypyridin-3-yl)quinazolin-4-yl]-N,N-dimethylcyclohexane-1,4-diamine], 6.70; that for `CN(C)[C@H]1CC[C@H](Nc2ncnc3ccc(-c4cncc(F)c4)cc23)CC1` [Example 1-53, trans-N′-[6-(5-fluoropyridin-3-yl)quinazolin-4-yl]-N,N-dimethylcyclohexane-1,4-diamine], 7.62.

The molecule `CN(C)[C@H]1CC[C@H](Nc2ncnc3ccc(-c4cncc(C#N)c4)cc23)CC1` [Example 1-54, 5-(4-{[trans-4-(dimethylamino)cyclohexyl]amino}quinazolin-6-yl)pyridine-3-carbonitrile] had a pIC50 of 7.34. `CN(C)[C@H]1CC[C@H](Nc2ncnc3ccc(-c4cnc5[nH]ccc5c4)cc23)CC1` [Example 1-55, trans-N,N-dimethyl-N′-[6-(1H-pyrrolo[2,3-b]pyridin-5-yl)quinazolin-4-yl]cyclohexane-1,4-diamine] showed a pIC50 of 7.34. For `CN(C)[C@H]1CC[C@H](Nc2ncnc3ccc(-c4cncc(C(=O)NC(C)(C)C)c4)cc23)CC1` [Example 1-56, N-tert-butyl-5-(4-{[trans-4-(dimethylamino)cyclohexyl]amino}quinazolin-6-yl)pyridine-3-carboxamide] the value was 6.89. For `CN1CCOc2cc(-c3ccc4ncnc(N[C@H]5CC[C@H](N(C)C)CC5)c4c3)cnc21` [Example 1-57, trans-N,N-dimethyl-N′-[6-(4-methyl-3,4-dihydro-2H-pyrido[3,2-b][1,4]oxazin-7-yl)quinazolin-4-yl]cyclohexane-1,4-diamine] the value was 5.17. The result for `CN(C)[C@H]1CC[C@H](Nc2ncnc3ccc(-c4cnc5[nH]ncc5c4)cc23)CC1` [Example 1-58, trans-N,N-dimethyl-N′-[6-(1H-pyrazolo[3,4-b]pyridin-5-yl)quinazolin-4-yl]cyclohexane-1,4-diamine] reads 7.68; that for `CN(C)[C@H]1CC[C@H](Nc2ncnc3ccc(-c4cnc5cc[nH]c5c4)cc23)CC1` [Example 1-59, trans-N,N-dimethyl-N′-[6-(1H-pyrrolo[3,2-b]pyridin-6-yl)quinazolin-4-yl]cyclohexane-1,4-diamine], 6.91; that for `Cn1cnc2cc(-c3ccc4ncnc(N[C@H]5CC[C@H](N(C)C)CC5)c4c3)cnc21` [Example 1-60, trans-N,N-dimethyl-N′-[6-(3-methyl-3H-imidazo[4,5-b]pyridin-6-yl)quinazolin-4-yl]cyclohexane-1,4-diamine], 5.77. Molecule `CN(C)[C@H]1CC[C@H](Nc2ncnc3ccc(-c4cnc5ccoc5c4)cc23)CC1` [Example 1-61, trans-N′-[6-(furo[3,2-b]pyridin-6-yl)quinazolin-4-yl]-N,N-dimethylcyclohexane-1,4-diamine] showed a pIC50 of 6.96. For `CN(C)[C@H]1CC[C@H](Nc2ncnc3ccc(-c4cc(F)cc(F)c4)cc23)CC1` [Example 1-62, trans-N′-[6-(3,5-difluorophenyl)quinazolin-4-yl]-N,N-dimethylcyclohexane-1,4-diamine] the value was 7.64.

The pIC50 is −log10 of the IC50, conventionally taken in molar units. High values mean a low IC50, low ones a high IC50.
